These results are taken from ChEMBL document CHEMBL5052856, “Inhibitors of apol1 and methods of using same” (2021).

The target in test [1] is Apolipoprotein L1 (Homo sapiens, UniProt O14791). Nature of the test: Inhibition of APOL1 G1 variant in human HEK293-T-REx cells measured by Thallium assay. Type of test: cell-based.
Test [2] has as its system Trypanosoma brucei brucei. The test can be described thus: Antitrypanosomal activity against Trypanosoma brucei brucei assessed as trypanosome lysis using recombinant APOL1 protein G1 variant and measured by Alamar blue based fluoresence assay. In kind it is functional, organism-based.

Regarding `CC(C)(CO)NC(=O)[C@H]1C[C@H](c2c(-c3ccc(F)cc3)[nH]c3c(F)cc(F)cc32)C1`, the IC50 is under 250 nM in test [1] and 250 nM in test [2].

Turning to `CN(CC(O)CO)C(=O)[C@H]1C[C@H](c2c(-c3ccc(F)cc3)[nH]c3c(F)cc(F)cc32)C1` (some centres not stated), the figures for the IC50 in test [1] and in test [2] were over 1000 nM and 250 nM, respectively.

As for `C#CC(CO)NC(=O)[C@H]1C[C@H](c2c(-c3ccc(F)cc3)[nH]c3c(F)cc(F)cc32)C1` (some centres not stated), the half-maximal inhibitory concentration (IC50) was 0.25 nM in test [1] and under 250 nM in test [2].

On to `CC(CO)NC(=O)[C@H]1C[C@H](c2c(-c3ccc(F)cc3)[nH]c3c(F)cc(F)cc32)C1` (some centres not stated), for which the half-inhibitory concentration (IC50) in test [1] and in test [2] was under 250 nM in each case.

`Cc1ccn(CCNC(=O)[C@H]2C[C@H](c3c(-c4ccc(F)cc4)[nH]c4c(F)cc(F)cc43)C2)n1`: the IC50 was over 1000 nM in test [1] and 250 nM in test [2].

In the case of `O=C([C@H]1C[C@H](c2c(-c3ccc(F)cc3)[nH]c3c(F)cc(F)cc32)C1)N1C[C@H]2C[C@@]2(CO)C1`, the IC50 in test [1] and in test [2] was over 1000 nM each time.

Regarding `CC1(NC(=O)[C@H]2C[C@H](c3c(-c4ccc(F)cc4)[nH]c4c(F)cc(F)cc43)C2)CCNC1=O` (some centres not stated), the figures for the IC50 in test [1] and in test [2] were 0.25 nM and under 250 nM, respectively.

Turning to `C[C@@H](O)CNC(=O)[C@H]1C[C@H](c2c(-c3ccc(F)cc3)[nH]c3c(F)cc(F)cc32)C1`, the IC50 came out at 0.25 nM in test [1] and 250 nM in test [2].

With `CCC(O)(CCCO)CNC(=O)[C@H]1C[C@H](c2c(-c3ccc(F)cc3)[nH]c3c(F)cc(F)cc32)C1` (some centres not stated), the IC50 in test [1] and in test [2] was over 1000 nM in each case.

As for `O=C([C@H]1C[C@H](c2c(-c3ccc(F)cc3)[nH]c3c(F)cc(F)cc32)C1)N1CCOC(CO)C1` (some centres not stated), the IC50 in test [1] and in test [2] was over 1000 nM throughout.

For the compound `NC(=O)[C@@H](CO)NC(=O)[C@H]1C[C@H](c2c(-c3ccc(F)cc3)[nH]c3c(F)cc(F)cc32)C1`, the half-inhibitory concentration (IC50) in test [1] and in test [2] was under 250 nM throughout.

On to `CC1(O)CN(C(=O)[C@H]2C[C@H](c3c(-c4ccc(F)cc4)[nH]c4c(F)cc(F)cc43)C2)C1`, for which the IC50 in test [1] was determined as 0.25 nM; in test [2], 250 nM.

Regarding `C[C@H](NC(=O)[C@H]1C[C@H](c2c(-c3ccc(F)cc3)[nH]c3c(F)cc(F)cc32)C1)C(=O)N(C)C`, the IC50 in test [1] came to 0.25 nM; in test [2], 250 nM.

As to `O=C1CC[C@H](NC(=O)[C@H]2C[C@H](c3c(-c4ccc(F)cc4)[nH]c4c(F)cc(F)cc43)C2)C1`, the concentration for half-maximal inhibition (IC50) in test [1] was 0.25 nM; in test [2], 250 nM.

Take `O=C([C@H]1C[C@H](c2c(-c3ccc(F)cc3)[nH]c3c(F)cc(F)cc32)C1)N1CCOC[C@H]1CO`: the IC50 is over 1000 nM in test [1] and 250 nM in test [2].

In the case of `O=C([C@H]1C[C@H](c2c(-c3ccc(F)cc3)[nH]c3c(F)cc(F)cc32)C1)N1C[C@@H]2[C@@H](CO)[C@@H]2C1`, the 50% inhibitory concentration (IC50) in test [1] and in test [2] was over 1000 nM throughout.

Regarding `O=C([C@H]1C[C@H](c2c(-c3ccc(F)cc3)[nH]c3c(F)cc(F)cc32)C1)N1CCCC(CO)C1` (some centres not stated), the IC50 in test [1] and in test [2] was over 1000 nM each time.

As for `O=C(NC1CNC[C@@H]1O)[C@H]1C[C@H](c2c(-c3ccc(F)cc3)[nH]c3c(F)cc(F)cc32)C1` (some centres not stated), the IC50 in test [1] is over 1000 nM; in test [2], 250 nM.

In the case of `O=C(NCCn1cnnc1)[C@H]1C[C@H](c2c(-c3ccc(F)cc3)[nH]c3c(F)cc(F)cc32)C1`, the half-inhibitory concentration (IC50) in test [1] and in test [2] was over 1000 nM each time.

As to `CC(NC(=O)[C@H]1C[C@H](c2c(-c3ccc(F)cc3)[nH]c3c(F)cc(F)cc32)C1)C(N)=O` (some centres not stated), the 50% inhibitory concentration (IC50) in test [1] came to 0.25 nM; in test [2], 250 nM.

Take `O=C([C@H]1C[C@H](c2c(-c3ccc(F)cc3)[nH]c3c(F)cc(F)cc32)C1)N1CCOCC1CCO` (some centres not stated): the concentration for half-maximal inhibition (IC50) in test [1] and in test [2] was over 1000 nM throughout.

On to `O=C1N[C@H](CO)C[C@@H]1NC(=O)[C@H]1C[C@H](c2c(-c3ccc(F)cc3)[nH]c3c(F)cc(F)cc32)C1`, for which the IC50 in test [1] and in test [2] was over 1000 nM in each case.

For the compound `NC(=O)C1CC(c2c(-c3ccc(F)cc3)[nH]c3c(F)cc(F)cc23)C1` (configuration not stated), the IC50 stood at 0.25 nM in test [1] and 250 nM in test [2].

As to `CC(CO)CNC(=O)[C@H]1C[C@H](c2c(-c3ccc(F)cc3)[nH]c3c(F)cc(F)cc32)C1` (some centres not stated), the IC50 in test [1] came to 0.25 nM; in test [2], 250 nM.

Take `Cc1noc(CNC(=O)[C@H]2C[C@H](c3c(-c4ccc(F)cc4)[nH]c4c(F)cc(F)cc43)C2)n1`: the IC50 in test [1] and in test [2] was under 250 nM throughout.

For `CC(C)[C@@H](CO)NC(=O)[C@H]1C[C@H](c2c(-c3ccc(F)cc3)[nH]c3c(F)cc(F)cc32)C1`, the half-maximal inhibitory concentration (IC50) in test [1] and in test [2] was over 1000 nM each time.

On to `NC(=O)[C@@H]1CCN(C(=O)[C@H]2C[C@H](c3c(-c4ccc(F)cc4)[nH]c4c(F)cc(F)cc43)C2)C1`, for which the IC50 in test [1] and in test [2] was over 1000 nM in each case.

On to `Cn1ccc(NC(=O)[C@H]2C[C@H](c3c(-c4ccc(F)cc4)[nH]c4c(F)cc(F)cc43)C2)n1`, for which the IC50 in test [1] is over 1000 nM; in test [2], 250 nM.

`O=C(NC1CCOC1)[C@H]1C[C@H](c2c(-c3ccc(F)cc3)[nH]c3c(F)cc(F)cc32)C1` (some centres not stated): the IC50 in test [1] was over 1000 nM; in test [2], 250 nM.

As for `O=C(NC(CO)C1CC1)[C@H]1C[C@H](c2c(-c3ccc(F)cc3)[nH]c3c(F)cc(F)cc32)C1` (some centres not stated), the half-inhibitory concentration (IC50) in test [1] worked out at 0.25 nM; in test [2], 250 nM.

Take `O=C1CN(C(=O)[C@H]2C[C@H](c3c(-c4ccc(F)cc4)[nH]c4c(F)cc(F)cc43)C2)CCN1`: the IC50 in test [1] and in test [2] was over 1000 nM throughout.

`O=C(NCCO)[C@H]1C[C@H](c2c(-c3ccc(F)cc3)[nH]c3c(F)cc(F)cc32)C1`: the IC50 in test [1] and in test [2] was under 250 nM throughout.

With `O=C(NC[C@H](O)C(F)(F)F)[C@H]1C[C@H](c2c(-c3ccc(F)cc3)[nH]c3c(F)cc(F)cc32)C1`, the IC50 in test [1] was 0.25 nM; in test [2] it was under 250 nM.

Regarding `CCOCC1(CNC(=O)[C@H]2C[C@H](c3c(-c4ccc(F)cc4)[nH]c4c(F)cc(F)cc43)C2)CC1`, the IC50 in test [1] and in test [2] was over 1000 nM in each case.

Regarding `CCN(CCO)C(=O)[C@H]1C[C@H](c2c(-c3ccc(F)cc3)[nH]c3c(F)cc(F)cc32)C1`, the half-maximal inhibitory concentration (IC50) in test [1] came out at 0.25 nM; in test [2], 250 nM.

Take `O=C(N[C@H]1CCC[C@@H]1O)[C@H]1C[C@H](c2c(-c3ccc(F)cc3)[nH]c3c(F)cc(F)cc32)C1`: the values for the IC50 in test [1] and in test [2] were 0.25 nM and 250 nM, respectively.

For `O=C([C@H]1C[C@H](c2c(-c3ccc(F)cc3)[nH]c3c(F)cc(F)cc32)C1)N1CC2(CC(O)C2)C1`, the IC50 in test [1] and in test [2] was over 1000 nM throughout.

For the compound `O=C([C@H]1C[C@H](c2c(-c3ccc(F)cc3)[nH]c3c(F)cc(F)cc32)C1)N1CCC(O)(CO)CC1`, the IC50 in test [1] and in test [2] was over 1000 nM each time.

Take `CN(CC1(CO)CCOCC1)C(=O)[C@H]1C[C@H](c2c(-c3ccc(F)cc3)[nH]c3c(F)cc(F)cc32)C1`: the concentration for half-maximal inhibition (IC50) in test [1] and in test [2] was over 1000 nM throughout.

As to `C[C@@H](NC(=O)[C@H]1C[C@H](c2c(-c3ccc(F)cc3)[nH]c3c(F)cc(F)cc32)C1)C(N)=O`, the IC50 was 0.25 nM in test [1] and over 1000 nM in test [2].

Turning to `O=C(NC[C@@H](O)CO)[C@H]1C[C@H](c2c(-c3ccc(F)cc3)[nH]c3c(F)cc(F)cc32)C1`, the IC50 in test [1] and in test [2] was over 1000 nM in each case.

Regarding `CC(CO)N(C)C(=O)[C@H]1C[C@H](c2c(-c3ccc(F)cc3)[nH]c3c(F)cc(F)cc32)C1` (some centres not stated), the figures for the IC50 in test [1] and in test [2] were under 250 nM and 250 nM, respectively.

For the compound `O=C(N[C@@H]1CC[C@H](O)C1)[C@H]1C[C@H](c2c(-c3ccc(F)cc3)[nH]c3c(F)cc(F)cc32)C1`, the half-maximal inhibitory concentration (IC50) in test [1] and in test [2] was over 1000 nM each time.

As to `O=C([C@H]1C[C@H](c2c(-c3ccc(F)cc3)[nH]c3c(F)cc(F)cc32)C1)N1CC(OCC2CCCO2)C1` (some centres not stated), the IC50 in test [1] and in test [2] was over 1000 nM each time.

For the compound `CS(=O)(=O)CCNC(=O)[C@H]1C[C@H](c2c(-c3ccc(F)cc3)[nH]c3c(F)cc(F)cc32)C1`, the figures for the IC50 in test [1] and in test [2] were under 250 nM and over 1000 nM, respectively.

Take `COCC1(CNC(=O)[C@H]2C[C@H](c3c(-c4ccc(F)cc4)[nH]c4c(F)cc(F)cc43)C2)CC1`: the concentration for half-maximal inhibition (IC50) in test [1] and in test [2] was over 1000 nM each time.

Turning to `NCC(O)CNC(=O)[C@H]1C[C@H](c2c(-c3ccc(F)cc3)[nH]c3c(F)cc(F)cc32)C1` (some centres not stated), the IC50 in test [1] worked out at 0.25 nM; in test [2], 250 nM.

`NC(=O)CNCC1CC(c2c(-c3ccc(F)cc3)[nH]c3c(F)cc(F)cc23)C1` (configuration not stated): the half-inhibitory concentration (IC50) in test [1] and in test [2] was under 250 nM throughout.

Take `O=C([C@H]1C[C@H](c2c(-c3ccc(F)cc3)[nH]c3c(F)cc(F)cc32)C1)N1CCC(O)(O)CC1`: the figures for the half-inhibitory concentration (IC50) in test [1] and in test [2] were over 1000 nM and 250 nM, respectively.

Turning to `C[C@]1(NC(=O)[C@H]2C[C@H](c3c(-c4ccc(F)cc4)[nH]c4c(F)cc(F)cc43)C2)C[C@@H](O)C1`, the concentration for half-maximal inhibition (IC50) was 0.25 nM in test [1] and 250 nM in test [2].

For `O=C1NCC[C@@H]1NC(=O)[C@H]1C[C@H](c2c(-c3ccc(F)cc3)[nH]c3c(F)cc(F)cc32)C1`, the figures for the IC50 in test [1] and in test [2] were 0.25 nM and 250 nM, respectively.

As to `C[C@@H](CO)NC(=O)[C@H]1C[C@H](c2c(-c3ccc(F)cc3)[nH]c3c(F)cc(F)cc32)C1`, the IC50 in test [1] and in test [2] was under 250 nM throughout.

In the case of `O=C1NCC[C@H]1NC(=O)[C@H]1C[C@H](c2c(-c3ccc(F)cc3)[nH]c3c(F)cc(F)cc32)C1`, the concentration for half-maximal inhibition (IC50) was 0.25 nM in test [1] and under 250 nM in test [2].

Turning to `C[C@@H](NC(=O)[C@H]1C[C@H](c2c(-c3ccc(F)cc3)[nH]c3c(F)cc(F)cc32)C1)C(=O)N(C)C`, the IC50 in test [1] and in test [2] was over 1000 nM each time.

Consider `CC(O)C1CCN(C(=O)[C@H]2C[C@H](c3c(-c4ccc(F)cc4)[nH]c4c(F)cc(F)cc43)C2)CC1` (some centres not stated), for which the half-inhibitory concentration (IC50) in test [1] and in test [2] was over 1000 nM in each case.

`CN(C(=O)[C@H]1C[C@H](c2c(-c3ccc(F)cc3)[nH]c3c(F)cc(F)cc32)C1)C1COCC1O` (some centres not stated): the half-inhibitory concentration (IC50) in test [1] and in test [2] was over 1000 nM throughout.
